Calls of active or inactive are those of the source. The rule behind the calls is not given here.
How the values were obtained:
[1] = test system: Bcap37; assay: Cytotoxicity against human Bcap37 cells after 48 hrs by MTT assay; assay type: functional, cell-based; conditions: Bcap37, 48 h
[2] = test system: HepG2; assay: Cytotoxicity against human HepG2 cells after 48 hrs by MTT assay; assay type: functional, cell-based; conditions: HepG2, 48 h
[3] = Cytotoxicity against human SGC7901 cells after 48 hrs by MTT assay; assay type: functional, cell-based; conditions: SGC-7901, 48 h
[4] = test system: MGC-803; assay: Cytotoxicity against human MGC803 cells after 48 hrs by MTT assay; assay type: functional, cell-based; conditions: MGC-803, 48 h
[5] = target: Telomerase reverse transcriptase (Homo sapiens, UniProt O14746); assay: Inhibition of telomerase in human MGC803 cell extracts after 24 hrs by TRAP-PCR-ELISA; parameters: species or system MGC-803
[6] = target: DNA polymerase I, thermostable (Thermus aquaticus) (UniProt P19821); assay: Inhibition of Thermus aquaticus Taq polymerase at IC50 for telomerase inhibition after 15 mins using ethidium bromide staining by 2% agarose gel electrophoresis analysis
[7] = test system: MGC-803; assay: Cell cycle arrest in human MGC803 cells at 0.92 uM after 48 hrs using propidium iodide staining after 48 hrs by flow cytometer relative to control; assay type: functional
[8] = test system: MGC-803; assay: Cell cycle arrest in human MGC803 cells assessed as accumulation at G2/M phase at […] uM after 48 hrs using propidium iodide staining after 48 hrs by flow cytometer relative to control; assay type: functional
[9] = test system: MGC-803; assay: Cell cycle arrest in human MGC803 cells assessed as accumulation at S phase at […] uM after 48 hrs using propidium iodide staining after 48 hrs by flow cytometer relative to control; assay type: functional
[10] = test system: MGC-803; assay: Cell cycle arrest in human MGC803 cells assessed as accumulation at G0/G1 phase at […] uM after 48 hrs using propidium iodide staining after 48 hrs by flow cytometer relative to control; assay type: functional
[11] = test system: MGC-803; assay: Cell cycle arrest in human MGC803 cells assessed as accumulation at G2/M phase at 25 uM after 48 hrs using propidium iodide staining after 48 hrs by flow cytometer relative to control; assay type: functional
[12] = test system: MGC-803; assay: Cell cycle arrest in human MGC803 cells assessed as accumulation at S phase at 25 uM after 48 hrs using propidium iodide staining after 48 hrs by flow cytometer relative to control; assay type: functional
[13] = test system: MGC-803; assay: Cell cycle arrest in human MGC803 cells assessed as accumulation at G0/G1 phase at 25 uM after 48 hrs using propidium iodide staining after 48 hrs by flow cytometer relative to control; assay type: functional

Sequence of DNA polymerase I, thermostable (Thermus aquaticus) (P19821 whole entry): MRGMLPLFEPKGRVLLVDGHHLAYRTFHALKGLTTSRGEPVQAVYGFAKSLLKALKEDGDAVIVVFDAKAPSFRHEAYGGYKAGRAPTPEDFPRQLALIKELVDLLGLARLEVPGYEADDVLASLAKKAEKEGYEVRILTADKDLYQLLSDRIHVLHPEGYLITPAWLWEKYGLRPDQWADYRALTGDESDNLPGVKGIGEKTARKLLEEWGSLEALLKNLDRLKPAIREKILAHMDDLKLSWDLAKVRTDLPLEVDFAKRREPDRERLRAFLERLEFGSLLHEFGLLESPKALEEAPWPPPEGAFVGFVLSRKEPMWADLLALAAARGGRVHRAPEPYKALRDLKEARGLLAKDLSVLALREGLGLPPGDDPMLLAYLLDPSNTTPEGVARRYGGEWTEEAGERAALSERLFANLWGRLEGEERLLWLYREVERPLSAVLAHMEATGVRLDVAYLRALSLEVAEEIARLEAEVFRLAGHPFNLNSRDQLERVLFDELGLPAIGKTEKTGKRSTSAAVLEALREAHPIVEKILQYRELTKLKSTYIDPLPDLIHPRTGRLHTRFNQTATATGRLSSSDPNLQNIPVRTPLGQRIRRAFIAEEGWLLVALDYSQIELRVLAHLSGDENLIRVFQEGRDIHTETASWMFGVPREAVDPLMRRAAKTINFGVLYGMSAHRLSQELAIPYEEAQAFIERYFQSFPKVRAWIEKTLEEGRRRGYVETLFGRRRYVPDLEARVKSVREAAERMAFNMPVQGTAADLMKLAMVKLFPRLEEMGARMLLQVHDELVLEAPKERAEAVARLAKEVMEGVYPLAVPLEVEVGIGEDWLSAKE
Sequence of Telomerase reverse transcriptase (O14746 whole entry): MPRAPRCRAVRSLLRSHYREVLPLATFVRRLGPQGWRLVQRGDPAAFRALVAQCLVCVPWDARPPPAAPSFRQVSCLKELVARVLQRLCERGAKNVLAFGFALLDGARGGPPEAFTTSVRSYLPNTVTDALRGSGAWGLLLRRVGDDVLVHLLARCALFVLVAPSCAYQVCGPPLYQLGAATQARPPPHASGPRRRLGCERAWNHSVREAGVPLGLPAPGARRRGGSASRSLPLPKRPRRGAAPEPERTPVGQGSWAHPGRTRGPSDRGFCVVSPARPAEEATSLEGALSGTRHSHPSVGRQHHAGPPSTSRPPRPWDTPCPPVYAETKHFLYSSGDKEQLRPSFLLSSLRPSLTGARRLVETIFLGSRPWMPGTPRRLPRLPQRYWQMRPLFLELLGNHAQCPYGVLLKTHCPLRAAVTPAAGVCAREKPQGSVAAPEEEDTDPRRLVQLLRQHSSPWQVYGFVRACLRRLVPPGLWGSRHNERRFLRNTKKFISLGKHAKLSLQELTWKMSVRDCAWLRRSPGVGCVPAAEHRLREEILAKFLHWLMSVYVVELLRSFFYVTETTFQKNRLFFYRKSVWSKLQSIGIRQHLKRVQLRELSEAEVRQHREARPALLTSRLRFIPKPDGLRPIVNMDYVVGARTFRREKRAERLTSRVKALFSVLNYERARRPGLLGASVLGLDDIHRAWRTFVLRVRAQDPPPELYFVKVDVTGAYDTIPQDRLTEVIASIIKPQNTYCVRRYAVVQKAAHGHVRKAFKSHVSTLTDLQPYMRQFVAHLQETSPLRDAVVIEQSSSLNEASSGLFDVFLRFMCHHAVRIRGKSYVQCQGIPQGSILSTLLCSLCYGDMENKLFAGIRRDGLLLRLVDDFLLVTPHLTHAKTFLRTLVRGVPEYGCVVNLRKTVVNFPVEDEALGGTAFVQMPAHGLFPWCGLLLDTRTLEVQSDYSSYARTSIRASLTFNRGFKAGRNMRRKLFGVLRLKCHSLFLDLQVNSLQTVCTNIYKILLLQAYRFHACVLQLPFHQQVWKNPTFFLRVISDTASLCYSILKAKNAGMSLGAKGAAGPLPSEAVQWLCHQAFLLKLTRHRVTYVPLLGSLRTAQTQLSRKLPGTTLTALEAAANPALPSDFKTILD

**Q.** Which results are given for `O=C(CSCc1ccco1)N1N=C(c2cc3ccccc3oc2=O)C[C@@H]1c1ccccc1C(F)(F)F`?
**A.** IC50 [1]: 10.3 µM; IC50 [2]: 18 µM; IC50 [3]: 10.2 µM; IC50 [4]: 15.7 µM

**Q.** Which results are given for `O=c1[nH]cc(F)c(=O)[nH]1` [FLUOROURACIL]?
**A.** IC50 [1]: 5.58 µM; IC50 [2]: 4.35 µM; IC50 [3]: 7.37 µM; IC50 [4]: 3.68 µM

**Q.** Which IC50 [5] does the source give for `CC[n+]1c(-c2ccccc2)c2cc(N)ccc2c2ccc(N)cc21` [HOMIDIUM BROMIDE] here?
**A.** 2.1 µM

**Q.** Which IC50 [1] does the source give for `O=C(CSc1ccc(Br)cc1)N1N=C(c2cc3ccccc3oc2=O)C[C@@H]1c1ccccc1` here?
**A.** 13 µM

**Q.** And the IC50 [2]?
**A.** 14.5 µM

**Q.** And the IC50 [3]?
**A.** 14.3 µM

**Q.** What about the IC50 [4] of the same compound?
**A.** 16.8 µM

**Q.** Which IC50 [1] does the source give for `CCCCSCC(=O)N1N=C(c2cc3ccccc3oc2=O)C[C@@H]1c1ccccc1` here?
**A.** 9.7 µM

**Q.** And the IC50 [2]?
**A.** 6.64 µM

**Q.** What about the IC50 [3] of the same compound?
**A.** 7.3 µM

**Q.** What about the IC50 [4] of the same compound?
**A.** 12.8 µM

**Q.** For `CC1=NN(C(=O)CSc2ccc(Br)cc2)[C@@H](c2cc(Br)cc(Br)c2O)C1`, which IC50 [1] is on record?
**A.** 3.2 µM

**Q.** What about the IC50 [2] of the same compound?
**A.** 6.87 µM

**Q.** And the IC50 [3]?
**A.** 8.21 µM

**Q.** And the IC50 [4]?
**A.** 12.8 µM

**Q.** Which results are given for `O=C(CSc1ncccn1)N1N=C(c2cc3ccccc3oc2=O)C[C@@H]1c1ccccc1C(F)(F)F`?
**A.** inhibition [6]: inactive; IC50 [5]: 8.89 µM; IC50 [1]: 4.09 µM; IC50 [2]: 6.54 µM; IC50 [3]: 4.97 µM; IC50 [4]: 4 µM

**Q.** For `CC1=NN(C(=O)CSc2nc3ccccc3s2)[C@@H](c2cc(Br)cc(Br)c2O)C1`, which IC50 [5] is on record?
**A.** 4.65 µM

**Q.** What about the IC50 [1] of the same compound?
**A.** 9.7 µM

**Q.** And the IC50 [2]?
**A.** 8.7 µM

**Q.** And the IC50 [3]?
**A.** 12.3 µM

**Q.** What about the IC50 [4] of the same compound?
**A.** 7.8 µM

**Q.** Which inhibition [6] does the source give for `COC(=O)CSCC(=O)N1N=C(C)C[C@@H]1c1cc(Br)cc(Br)c1O` here?
**A.** inactive

**Q.** And the IC50 [5]?
**A.** 1.19 µM

**Q.** What about the IC50 [1] of the same compound?
**A.** 3.7 µM

**Q.** What about the IC50 [2] of the same compound?
**A.** 2.95 µM

**Q.** And the IC50 [3]?
**A.** 3.3 µM

**Q.** And the IC50 [4]?
**A.** 2.27 µM

**Q.** What does the source list for `O=C(CSc1ccccc1)N1N=C(c2cc3ccccc3oc2=O)C[C@@H]1c1ccccc1`?
**A.** IC50 [1]: 14.8 µM; IC50 [2]: 16.3 µM; IC50 [3]: 20.3 µM; IC50 [4]: 22.8 µM

**Q.** With `O=C(CSc1ccc(Br)cc1)N1N=C(c2cc3ccccc3oc2=O)C[C@@H]1c1ccccc1C(F)(F)F` as the compound, how does the IC50 [1] read?
**A.** 10.3 µM

**Q.** What about the IC50 [2] of the same compound?
**A.** 17.9 µM

**Q.** What about the IC50 [3] of the same compound?
**A.** 14.7 µM

**Q.** And the IC50 [4]?
**A.** 21.3 µM

**Q.** For `O=C(CSc1ncccn1)N1N=C(c2cc3ccccc3oc2=O)C[C@@H]1c1ccc(C(F)(F)F)cc1`, which IC50 [1] is on record?
**A.** 3.77 µM

**Q.** And the IC50 [2]?
**A.** 4.75 µM

**Q.** And the IC50 [3]?
**A.** 4.39 µM

**Q.** And the IC50 [4]?
**A.** 2.89 µM

**Q.** What does the source list for `CCCCSCC(=O)N1N=C(c2cc3ccccc3oc2=O)C[C@@H]1c1ccc(C(F)(F)F)cc1`?
**A.** inhibition [6]: inactive; IC50 [5]: 0.92 µM; Activity [7]: 66%; IC50 [1]: 3.55 µM; IC50 [2]: 8.68 µM; IC50 [3]: 2.91 µM; IC50 [4]: 2.35 µM

**Q.** What does the source list for `O=C(CSc1ccc(Br)cc1)N1N=C(c2cc3ccccc3oc2=O)C[C@@H]1c1ccc(C(F)(F)F)cc1`?
**A.** inhibition [6]: inactive; IC50 [5]: 25.1 µM; IC50 [1]: 7.99 µM; IC50 [2]: 12.7 µM; IC50 [3]: 12.1 µM; IC50 [4]: 10.8 µM

**Q.** Which IC50 [1] does the source give for `CC1=NN(C(=O)CSc2ccccn2)[C@@H](c2cc(Br)cc(Br)c2O)C1` here?
**A.** 16.7 µM

**Q.** What about the IC50 [2] of the same compound?
**A.** 24.7 µM

**Q.** And the IC50 [3]?
**A.** 10.3 µM

**Q.** What about the IC50 [4] of the same compound?
**A.** 12.3 µM

**Q.** Which inhibition [6] does the source give for `CCCCSCC(=O)N1N=C(c2cc3ccccc3oc2=O)C[C@@H]1c1ccccc1C(F)(F)F` here?
**A.** inactive

**Q.** What about the IC50 [5] of the same compound?
**A.** 2 µM

**Q.** And the IC50 [1]?
**A.** 9.73 µM

**Q.** And the IC50 [2]?
**A.** 5.01 µM

**Q.** What about the IC50 [3] of the same compound?
**A.** 4.42 µM

**Q.** And the IC50 [4]?
**A.** 3.14 µM

**Q.** Which IC50 [1] does the source give for `CC1=NN(C(=O)CSc2ccccc2)[C@@H](c2cc(Br)cc(Br)c2O)C1` here?
**A.** 13.1 µM

**Q.** And the IC50 [2]?
**A.** 10.3 µM

**Q.** And the IC50 [3]?
**A.** 24.1 µM

**Q.** And the IC50 [4]?
**A.** 12.7 µM

**Q.** For `O=C(CSc1ccc([N+](=O)[O-])cc1)N1N=C(c2cc3ccccc3oc2=O)C[C@@H]1c1ccc(C(F)(F)F)cc1`, which IC50 [1] is on record?
**A.** 16.5 µM

**Q.** What about the IC50 [2] of the same compound?
**A.** 7.76 µM

**Q.** And the IC50 [3]?
**A.** 8.51 µM

**Q.** What about the IC50 [4] of the same compound?
**A.** 10.2 µM

**Q.** Which results are given for `O=C(CSc1ccc([N+](=O)[O-])cc1)N1N=C(c2cc3ccccc3oc2=O)C[C@@H]1c1ccccc1C(F)(F)F`?
**A.** IC50 [1]: 10.8 µM; IC50 [2]: 7.7 µM; IC50 [3]: 9.77 µM; IC50 [4]: 7.58 µM

**Q.** Which IC50 [5] does the source give for `C/C(=C\C(=O)Nc1ccccc1C(=O)O)c1ccc2ccccc2c1` here?
**A.** 0.28 µM

**Q.** What does the source list for `CCCSCC(=O)N1N=C(C)C[C@@H]1c1cc(Br)cc(Br)c1O`?
**A.** inhibition [6]: inactive; IC50 [5]: 1.04 µM; Activity [8]: 25.2%; Activity [9]: 30.1%; Activity [10]: 47.2%; IC50 [1]: 3.24 µM; IC50 [2]: 4 µM; IC50 [3]: 2.3 µM; IC50 [4]: 2.97 µM

**Q.** What does the source list for `O=c1cc(N2CCOCC2)oc2c(-c3ccccc3)cccc12` [LY-294002]?
**A.** Activity [11]: 22.4%; Activity [12]: 27.1%; Activity [13]: 50.5%

**Q.** Which IC50 [1] does the source give for `O=C(CSCc1ccco1)N1N=C(c2cc3ccccc3oc2=O)C[C@@H]1c1ccc(C(F)(F)F)cc1` here?
**A.** 12 µM

**Q.** What about the IC50 [2] of the same compound?
**A.** 11.2 µM

**Q.** What about the IC50 [3] of the same compound?
**A.** 9.74 µM

**Q.** And the IC50 [4]?
**A.** 15.2 µM

— ChEMBL document CHEMBL3112413, “Novel coumarin-dihydropyrazole thio-ethanone derivatives: design, synthesis and anticancer activity” (Eur J Med Chem, 2014)
